# Experimental data from patent US20030113742A1, “Methods and compositions for the modulation of biofilm formation” (priority 2001, published 2003).
# Experiments:
# P. aeruginosa biofilms [1] = assay: Plate counting of biofilm cell numbers after tobramycin; assay type: cell-based, Pseudomonas aeruginosa PAO1; conditions: 5 μg/ml
# Experimental: (§1) P. aeruginosa PAO1 was grown at 37° C. with aeration in chemostat vessels (100 ml of medium, dilution rate, 0.2 h^−1). The growth medium consisted of 0.5% NH4Cl, 0.25% NaCl, 0.015% KH2PO4, 1.5% MOPS (pH, 7.0), and 0.015% casamino acids. For biofilms, the chemostat vessel contained 100 g of sterilized granite pebbles (approximately 70 pebbles). Vessels were inoculated with approximately 10^6 P. aeruginosa cells. For biofilm cultures, cells were allowed to attach to the rocks for 24 h prior to initiating the flow of medium, after which flow was initiated at a high rate (100 ml/h). After 2 h at this flow rate, more than 99% of all unattached bacteria were washed away. Flow was then decreased to give a final dilution rate identical to that in the planktonic chemostat. After 5 days cell numbers in the biofilm and planktonic chemostats were similar ([…]) as determined with standard plate counting techniques. To remove biofilm bacteria for plate counting, rocks were vortexed for 2 minutes in 5 ml phosphate buffered saline. A small planktonic population was present in the biofilm reactors throughout the experiment, but never represented more than 0.1% of the total chemostat population.
# The existence in a biofilm might induce moderate levels of resistance to all antimicrobial treatments. […]
# P. aeruginosa biofilms [2] = assay: Microarray of genes regulated by tobramycin in P. aeruginosa biofilms; assay type: cell-based, Pseudomonas aeruginosa PAO1; conditions: for Fold activation ± SE: tobramycin 5 μg/ml 24 h, treated vs untreated biofilms
# Experimental: as §1
# RNA was isolated from planktonic and biofilm bacteria using the Trizol reagent (Life Technologies, Grand Island, N.Y.). Planktonic cells were pelleted by centrifugation (10,000 rpm for 10 min) at 4° C. For biofilm RNA isolation, rocks containing biofilm bacteria were rinsed with sterile medium and suspended in Trizol reagent. After vortexing for 1 min the rocks were removed and the remaining cell material was sonicated for 10 s. Insoluble material was removed by centrifugation and RNA was isolated as described above. Contaminating DNA was eliminated by DNase treatment, and RNA was isolated by phenol-chloroform extraction and precipitation with LiCl. cDNA probes were produced from RNA using random primers (NSNSNSNSNS) and Cy5-dCTP or Cy3-dCTP (Amersham, Buckinghamshire, UK) according to previously described procedures (J. K. Ichikawa, et al., Proc. Natl. Acad. Sci. U.S.A. 97, 9659 (2000)). To avoid complications associated with Cy5-dCTP and Cy3-dCTP incorporation rates into resulting cDNA, each RNA comparison was performed with both dye combinations on separate microarrays.
# The microarrays were glass microscope slides containing representative gene-specific DNA fragments from 5,500 of the estimated 5,570 open reading frames (ORFs) of P. aeruginosa. The microarrays were printed with a Generation II Array printer (Molecular Dynamics), and the hybridized microarrays were images with a Generation II scanning confocal fluorescent microscope (Molecular Dynamics).
# The existence in a biofilm might induce moderate levels of resistance to all antimicrobial treatments. This could afford cells in a biofilm the opportunity to respond to an antibiotic by inducing genes more specific to that antibiotic. Thus, biofilms exposed to tobramycin were compared with untreated biofilms. Tobramycin (5 μg/ml) was added to influent medium after 4 days of biofilm growth. After 24 h, biofilms were removed and processed for RNA.
# The results (shown in Table 2, below) are from two independent experiments (1 standard error of the mean, SE). Positive values represent activation and negative values represent repression. Gene identifications and P. aeruginosa ORF numbers were obtained from the Pseudomonas Genome Project website. Genes that were repressed in biofilms and activated by tobramycin are underlined. Genes that were activated in biofilms and repressed by tobramycin are shown in italics and bold-face type. Eight of the 20 genes identified as being differentially expressed in tobramycin-treated biofilms (Table 2) were also identified as being differentially expressed in biofilms as compared to planktonic bacterial cells. […]
# [3] = test system: planktonic P. aeruginosa PAO1; assay: Minimum inhibitory concentration for planktonic cells; assay type: cell-based, Pseudomonas aeruginosa PAO1
# [4] = test system: P. aeruginosa wild-type and rpoS mutant biofilms; assay: Killing of wild-type and rpoS mutant biofilms by tobramycin; assay type: cell-based, Pseudomonas aeruginosa; conditions: increasing amounts of tobramycin
# Experimental: To examine the involvement of rpoS in biofilm development, the wild-type strain and an isogenic rpoS mutant strain were grown in flow cell reactors and both were tagged with a gfp plasmid which expresses green fluorescent protein (GFP) (Whitely, et al. (2000) J. Bacteriology 182:4356-4360). The P. aeruginosa biofilms that developed in the flow cells were examined by scanning confocal laser microscopy. Within four hours, differences between the rpoS mutant and the wild-type biofilms were evident. The mutant had attached to and covered much more of the glass surface. In a quantitative microtitre dish assay, biofilm formation of the parent strain was 38% of the rpoS mutant. After 24 hours, the mutant biofilm had matured and large structured groups of bacteria were evident.
# To assess whether rpoS influences the susceptibility of P. aeruginosa biofilms to antibiotics, biofilms of the P. aeruginosa wild-type and rpoS mutant were treated with increasing amounts of the aminoglycoside antibiotic tobramycin. […] These studies confirm that the microarray experiment, as described herein, identified a gene important for biofilm development and antibiotic susceptibility.
# [5] = tobramycin-treated vs untreated biofilms, 7× MIC for planktonic cells
smiles,measurement,setting,value
NC[C@H]1O[C@H](O[C@H]2[C@H](O)[C@@H](O[C@H]3O[C@H](CO)[C@@H](O)[C@H](N)[C@H]3O)[C@H](N)C[C@@H]2N)[C@H](N)C[C@@H]1O [tobramycin],effect on cell numbers in biofilms,P. aeruginosa biofilms [1],did not significantly affect cell numbers in biofilms
same,Fold activation ± SE,P. aeruginosa biofilms [2]; gene: Conserved hypothetical protein (PA2498),2.9 ± 0.6 Fold
same,Fold activation ± SE,P. aeruginosa biofilms [2]; gene: Conserved hypothetical protein (PA3463),8.3 ± 3.2 Fold
same,Fold activation ± SE,P. aeruginosa biofilms [2]; gene: Conserved hypothetical protein (PA3785),5.0 ± 1.3 Fold
same,Fold activation ± SE,P. aeruginosa biofilms [2]; gene: Conserved hypothetical protein (PA3819),2.1 ± 0.3 Fold
same,Fold activation ± SE,P. aeruginosa biofilms [2]; gene: DnaK (PA4761),2.7 ± 0.4 Fold
same,Fold activation ± SE,P. aeruginosa biofilms [2]; gene: GroES (PA4386),5.8 ± 1.1 Fold
same,Fold activation ± SE,P. aeruginosa biofilms [2]; gene: Hypothetical protein (PA1110),8.7 ± 1.7 Fold
same,Fold activation ± SE,"P. aeruginosa biofilms [2]; gene: Hypothetical protein (PA1870), negative = repression",−6.4 ± 1.5 Fold
same,Fold activation ± SE,"P. aeruginosa biofilms [2]; gene: Hypothetical protein (PA1893), negative = repression",−2.4 ± 0.3 Fold
same,Fold activation ± SE,P. aeruginosa biofilms [2]; gene: Hypothetical protein (PA2703),19.3 ± 3.7 Fold
same,Fold activation ± SE,"P. aeruginosa biofilms [2]; gene: Hypothetical protein (PA3884), negative = repression",−14.7 ± 5.7 Fold
same,Fold activation ± SE,P. aeruginosa biofilms [2]; gene: Hypothetical protein (PA4326),23.2 ± 7.5 Fold
same,Fold activation ± SE,"P. aeruginosa biofilms [2]; gene: Hypothetical protein of bacteriophage PF1 (PA0721), negative = repression",−3.9 ± 1.0 Fold
same,Fold activation ± SE,"P. aeruginosa biofilms [2]; gene: Hypothetical protein of bacteriophage PF1 (PA0725), negative = repression",−3.1 ± 0.5 Fold
same,Fold activation ± SE,P. aeruginosa biofilms [2]; gene: Probable DNA binding protein (PA5348),18.1 ± 4.9 Fold
same,Fold activation ± SE,P. aeruginosa biofilms [2]; gene: Probable drug efflux protein (PA1541),4.7 ± 1.4 Fold
same,Fold activation ± SE,P. aeruginosa biofilms [2]; gene: Probable metal transporting P-type ATPase (PA3920),3.6 ± 1.1 Fold
same,Fold activation ± SE,P. aeruginosa biofilms [2]; gene: Probable transcriptional regulator (PA3574),3.3 ± 0.6 Fold
same,Fold activation ± SE,P. aeruginosa biofilms [2]; gene: Ribosome modulation factor (PA3049),24.7 ± 11.4 Fold
same,Fold activation ± SE,"P. aeruginosa biofilms [2]; gene: Urease beta subunit (PA4867), negative = repression",−3.7 ± 1.1 Fold
same,number of genes activated by tobramycin,P. aeruginosa biofilms [2]; [5],14
same,number of genes differentially expressed in tobramycin-treated biofilms,P. aeruginosa biofilms [2]; [5],Twenty
same,number of genes repressed by tobramycin,P. aeruginosa biofilms [2]; [5],6
same,5 μg/ml concentration as multiple of the minimum inhibitory concentration,[3],approximately 7 ×
same,resistance of rpoS mutant biofilms to killing by tobramycin compared with wild-type biofilms,[4],much more resistant
